Among the data in patent US8471005B2 (Cephalon, Inc., priority 2008, dated 2013) are IC50 values, retold here.

Read-outs that look alike come from different tables or passages of the source. Some results are limits rather than exact numbers.

In one experiment the target is T1, ALK (Homo sapiens, UniProt Q9UM73).
T1 construct: host or cells: baculovirus expression system
Nature of the experiment: ALK Kinase Assay (ELISA/TRF, PLC-γ substrate). The format is biochemical. As to conditions: read-out: ALK Potency. The gist of the method:
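First, plates are coated with substrate (phospholipase C-γ, 10 μg/mL, TBS). Next, 30 ng/ml ALK initiates phosphorylation for 15 min at 37° C. Then Eu-N1 PT66 antibody is added for detection, and a nonlinear dose-response fit of percent inhibition yields IC50.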
On the technique in general: ELISA stands for enzyme-linked immunosorbent assay.

The target of another experiment is T2, JAK2 (Homo sapiens, UniProt O60674).
T2 construct: host or cells: baculovirus expression system
Nature of the experiment: Recombinant Human JAK2 Kinase Assay (TRF). To be noted: read-out: JAK2 Potency. The format is biochemical. The essentials: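 TRF read-out: Eu-N1 PY100 anti-phosphotyrosine antibody detects product. Enzyme is baculovirus-expressed JAK2 at 15 ng/ml; substrate is a biotinyl 15-mer peptide bound to Neutravidin-coated wells. Buffer 20 mM HEPES pH 7.2, 0.2 μM ATP, 1 mM MnCl2, 0.1% BSA, 2.5% DMSO final; 20 min, RT.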

Where [1] appears, read: ALK kinase inhibition, 1 μM ATP.
Setting [2] is: JAK2 kinase inhibition, 0.2 μM ATP.

T2 sequence (O60674 whole entry): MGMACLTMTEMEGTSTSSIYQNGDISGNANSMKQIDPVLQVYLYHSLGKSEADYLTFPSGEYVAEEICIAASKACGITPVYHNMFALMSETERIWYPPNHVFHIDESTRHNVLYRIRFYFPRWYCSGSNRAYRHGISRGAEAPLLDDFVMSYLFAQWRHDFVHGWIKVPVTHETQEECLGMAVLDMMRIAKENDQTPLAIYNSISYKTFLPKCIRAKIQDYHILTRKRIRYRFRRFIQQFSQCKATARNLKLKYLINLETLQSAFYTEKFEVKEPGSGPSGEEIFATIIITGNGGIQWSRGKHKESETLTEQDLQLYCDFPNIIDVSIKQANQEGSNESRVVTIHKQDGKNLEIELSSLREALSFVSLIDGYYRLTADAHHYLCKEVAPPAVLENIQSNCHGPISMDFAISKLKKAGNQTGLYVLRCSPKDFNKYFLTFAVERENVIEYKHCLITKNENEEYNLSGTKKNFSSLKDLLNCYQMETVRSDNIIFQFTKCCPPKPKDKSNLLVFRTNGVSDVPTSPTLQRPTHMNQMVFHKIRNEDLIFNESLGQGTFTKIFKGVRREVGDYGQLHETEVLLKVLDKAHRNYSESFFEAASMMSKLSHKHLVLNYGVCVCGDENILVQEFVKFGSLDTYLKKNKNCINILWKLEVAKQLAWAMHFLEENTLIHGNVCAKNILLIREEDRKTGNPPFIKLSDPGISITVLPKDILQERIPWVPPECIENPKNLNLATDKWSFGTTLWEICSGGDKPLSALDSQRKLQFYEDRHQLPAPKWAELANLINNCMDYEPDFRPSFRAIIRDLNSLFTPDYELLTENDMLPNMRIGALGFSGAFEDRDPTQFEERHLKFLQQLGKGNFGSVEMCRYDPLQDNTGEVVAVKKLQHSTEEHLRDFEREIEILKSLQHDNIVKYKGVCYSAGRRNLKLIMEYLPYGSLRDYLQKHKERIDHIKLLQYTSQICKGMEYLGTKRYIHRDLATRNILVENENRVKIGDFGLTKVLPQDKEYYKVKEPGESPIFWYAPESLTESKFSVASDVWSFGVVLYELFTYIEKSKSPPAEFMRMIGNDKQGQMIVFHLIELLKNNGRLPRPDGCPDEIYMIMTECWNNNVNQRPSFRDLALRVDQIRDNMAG
T1 sequence (Q9UM73 19-1620): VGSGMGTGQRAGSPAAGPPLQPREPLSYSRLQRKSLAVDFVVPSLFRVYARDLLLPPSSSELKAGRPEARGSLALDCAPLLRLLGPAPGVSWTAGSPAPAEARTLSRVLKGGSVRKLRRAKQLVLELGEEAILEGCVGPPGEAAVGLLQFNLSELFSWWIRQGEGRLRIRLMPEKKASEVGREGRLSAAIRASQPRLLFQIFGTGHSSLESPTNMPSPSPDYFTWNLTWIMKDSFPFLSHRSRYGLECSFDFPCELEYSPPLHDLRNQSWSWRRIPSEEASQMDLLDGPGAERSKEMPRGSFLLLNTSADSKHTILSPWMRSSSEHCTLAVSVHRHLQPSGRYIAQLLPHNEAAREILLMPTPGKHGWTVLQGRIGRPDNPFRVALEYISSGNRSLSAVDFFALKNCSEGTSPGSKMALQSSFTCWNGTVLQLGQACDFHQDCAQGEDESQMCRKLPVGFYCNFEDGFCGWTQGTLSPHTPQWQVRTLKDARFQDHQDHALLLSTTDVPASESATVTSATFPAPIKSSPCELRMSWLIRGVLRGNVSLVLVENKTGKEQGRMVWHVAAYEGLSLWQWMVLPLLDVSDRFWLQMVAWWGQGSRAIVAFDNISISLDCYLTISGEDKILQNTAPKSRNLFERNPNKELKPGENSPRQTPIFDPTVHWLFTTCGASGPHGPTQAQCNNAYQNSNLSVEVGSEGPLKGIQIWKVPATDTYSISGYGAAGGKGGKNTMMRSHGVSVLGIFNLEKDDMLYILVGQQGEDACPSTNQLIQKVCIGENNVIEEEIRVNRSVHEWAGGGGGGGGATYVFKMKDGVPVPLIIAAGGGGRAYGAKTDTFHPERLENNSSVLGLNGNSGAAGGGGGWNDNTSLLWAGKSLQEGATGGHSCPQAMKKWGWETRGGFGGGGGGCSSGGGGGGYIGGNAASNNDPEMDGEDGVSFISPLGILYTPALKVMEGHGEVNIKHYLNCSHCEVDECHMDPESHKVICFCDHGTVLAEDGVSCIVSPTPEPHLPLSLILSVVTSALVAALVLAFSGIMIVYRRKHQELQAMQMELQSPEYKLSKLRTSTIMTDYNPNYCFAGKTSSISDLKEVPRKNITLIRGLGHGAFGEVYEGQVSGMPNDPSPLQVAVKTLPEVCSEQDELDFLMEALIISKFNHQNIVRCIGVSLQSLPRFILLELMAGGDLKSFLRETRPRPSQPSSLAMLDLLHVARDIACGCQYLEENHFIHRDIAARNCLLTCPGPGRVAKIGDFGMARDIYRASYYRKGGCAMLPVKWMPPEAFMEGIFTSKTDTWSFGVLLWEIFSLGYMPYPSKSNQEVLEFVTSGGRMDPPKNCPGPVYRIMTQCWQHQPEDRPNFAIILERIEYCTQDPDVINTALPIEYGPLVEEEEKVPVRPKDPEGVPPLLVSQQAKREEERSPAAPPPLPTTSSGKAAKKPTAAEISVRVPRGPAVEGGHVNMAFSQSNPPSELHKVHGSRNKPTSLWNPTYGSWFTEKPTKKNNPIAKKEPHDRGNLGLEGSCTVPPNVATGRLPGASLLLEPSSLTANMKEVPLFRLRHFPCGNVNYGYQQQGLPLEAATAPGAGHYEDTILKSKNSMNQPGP

Consider `CN1CCN(c2ccc(Nc3ncc4ccc(-c5cccc(N6CCNCC6)c5)n4n3)cc2)CC1` [Example 1169, [4-(4-Methyl-piperazin-1-yl)-phenyl]-[7-(3-piperazin-1-yl-phenyl)-pyrrolo[2,1-f][1,2,4]triazin-2-yl]-amine], for which the IC50 was 100 to 1000 nM at ALK (setting [1]) and under 100 nM at JAK2 (setting [2]).

In the case of `COc1cc(Nc2ncc3ccc(-c4cccc(Cl)c4)n3n2)ccc1N1CCOCC1` [Example 65, [7-(3-Chloro-phenyl)-pyrrolo[2,1-f][1,2,4]triazin-2-yl]-(3-methoxy-4-morpholin-4-yl-phenyl)-amine], the IC50 was 100 to 1000 nM at ALK (ALK Kinase Inhibition) and under 100 nM at JAK2 (JAK2 Kinase Inhibition).

On to “N-{2-[2-(5,5-Dimethyl-2-oxo-2,3,4,5-tetrahydro-1H-benzo[b]azepin-7-ylamino)pyrrolo[2,1-f][1,2,4]triazin-7-yl}-phenyl]methanesulfonamide [Example 624]”, for which the IC50 at ALK (setting [1]) and at JAK2 (setting [2]) was under 100 nM in each case.

In the case of `CN1CCN(c2cccc(Nc3ncc4ccc(-c5cccc(NCCS(C)(=O)=O)c5)n4n3)c2)CC1` [Example 894, {7-[3-(2-Methanesulfonyl-ethylamino)-phenyl]-pyrrolo[2,1-f][1,2,4]triazin-2-yl}-[3-(4-methyl-piperazin-1-yl)-phenyl]-amine], the IC50 on ALK (setting [1]) is 100 to 1000 nM; on JAK2 (setting [2]), under 100 nM.

In the case of `COc1cc2c(cc1Nc1ncc3ccc(-c4ccccc4OC)n3n1)CN(C1CCN(C)CC1)C2` [Example 852, [6-Methoxy-2-(1-methyl-piperidin-4-yl)-2,3-dihydro-1H-isoindol-5-yl]-[7-(2-methoxy-phenyl)-pyrrolo[2,1-f][1,2,4]triazin-2-yl]-amine], the IC50 at ALK (setting [1]) and at JAK2 (setting [2]) was under 100 nM in each case.

On to `COc1ccccc1-c1ccc2cnc(C#N)nn12` [Example 1494, 7-(2-Methoxy-phenyl)-pyrrolo[2,1-f][1,2,4]triazine-2-carbonitrile], for which the IC50 at ALK (ALK Kinase Inhibition) and on JAK2 (JAK2 Kinase Inhibition) was over 10000 nM each time.

In the case of `COc1ccccc1-c1ccc2cnc(Nc3cccc(OCCN4CCOCC4)c3)nn12` [Example 1003, [7-(2-Methoxy-phenyl)-pyrrolo[2,1-f][1,2,4]triazin-2-yl]-[3-(2-morpholin-4-yl-ethoxy)-phenyl]-amine], the IC50 is 100 to 1000 nM on ALK (setting [1]) and under 100 nM on JAK2 (setting [2]).

On to `COc1cc(C2CCN(C)CC2OC)ccc1Nc1ncc2ccc(-c3ccccc3OC)n2n1` (racemic) [Example 859, (±)-[2-Methoxy-4-(3-methoxy-1-methyl-piperidin-4-yl)-phenyl]-[7-(2-methoxy-phenyl)-pyrrolo[2,1-f][1,2,4]triazin-2-yl]-amine], for which the IC50 on ALK (setting [1]) and at JAK2 (setting [2]) was under 100 nM throughout.

Turning to `COc1ccc(-c2ccc3cnc(Nc4ccc5c(c4)CC(=O)N5C)nn23)cn1` [Example 384, 5-[7-(6-Methoxy-pyridin-3-yl)-pyrrolo[2,1-f][1,2,4]triazin-2-ylamino]-1-methyl-1,3-dihydro-indol-2-one], the IC50 at ALK (ALK Kinase Inhibition) is 1000 to 10000 nM; on JAK2 (JAK2 Kinase Inhibition) it was under 100 nM.

In the case of `OCCN1CCN(c2ccc(Nc3ncc4ccc(-c5cccc(Cl)c5)n4n3)cc2)CC1` [Example 1134, 2-(4-{4-[7-(3-Chloro-phenyl)-pyrrolo[2,1-f][1,2,4]triazin-2-ylamino]-phenyl}-piperazin-1-yl)-ethanol], the IC50 on ALK (setting [1]) and at JAK2 (setting [2]) was under 100 nM throughout.

`COc1cc(N2CCC[C@H](C(=O)N3CCN(C)CC3)C2)ccc1Nc1ncc2ccc(-c3ccccc3N(C)S(C)(=O)=O)n2n1` [Example 460, N-[2-(2-{2-Methoxy-4-[(S)-3-(4-methyl-piperazine-1-carbonyl)-piperidin-1-yl]-phenylamino}-pyrrolo[2,1-f][1,2,4]triazin-7-yl)-phenyl]-N-methyl-methanesulfonamide]: the IC50 on ALK (ALK Kinase Inhibition) is under 100 nM; on JAK2 (JAK2 Kinase Inhibition), 100 to 1000 nM.

For `COc1cc(N2CCCN(C)CC2)ccc1Nc1ncc2ccc(-c3ccccc3N(C)S(C)(=O)=O)n2n1` [Example 771, N-(2-{2-[2-Methoxy-4-(4-methyl-[1,4]diazepan-1-yl)-phenylamino]-pyrrolo[2,1-f][1,2,4]triazin-7-yl}-phenyl)-N-methyl-methanesulfonamide], the IC50 on ALK (setting [1]) is under 100 nM; at JAK2 (setting [2]), 100 to 1000 nM.

`COc1cc(C2CCCN(CC(N)=O)C2)ccc1Nc1ncc2ccc(-c3ccccc3N(C)S(C)(=O)=O)n2n1` (racemic) [Example 861, (±)-2-[3-(4-{7-[2-(Methanesulfonyl-methyl-amino)-phenyl]-pyrrolo[2,1-f][1,2,4]triazin-2-ylamino}-3-methoxy-phenyl)-piperidin-1-yl]-acetamide]: the IC50 was under 100 nM on ALK (setting [1]) and 100 to 1000 nM at JAK2 (setting [2]).

On to `CC(=O)Nc1cccc(Nc2ncc3ccc(-c4cccc(NCCS(C)(=O)=O)c4)n3n2)c1` [Example 893, N-(3-{7-[3-(2-Methanesulfonyl-ethylamino)-phenyl]-pyrrolo[2,1-f][1,2,4]triazin-2-ylamino}-phenyl)-acetamide], for which the IC50 on ALK (setting [1]) is 1000 to 10000 nM; at JAK2 (setting [2]), under 100 nM.

In the case of `COc1ccc(-c2ccc3cnc(Nc4ccc5c(c4)N(C)CCC5)nn23)cn1` [Example 980, [7-(6-Methoxy-pyridin-3-yl)-pyrrolo[2,1-f][1,2,4]triazin-2-yl]-(1-methyl-1,2,3,4-tetrahydro-quinolin-7-yl)-amine], the IC50 is over 10000 nM on ALK (setting [1]) and under 100 nM on JAK2 (setting [2]).

As for `COc1ccc(Cl)cc1-c1ccc2cnc(Nc3ccc(N4CCCC4)cc3)nn12` [Example 168, [7-(5-Chloro-2-methoxy-phenyl)-pyrrolo[2,1-f][1,2,4]triazin-2-yl]-(4-pyrrolidin-1-yl-phenyl)-amine], the IC50 is 1000 to 10000 nM on ALK (ALK Kinase Inhibition) and under 100 nM at JAK2 (JAK2 Kinase Inhibition).

As to `COc1cc(C2(C#N)CCC(N3CCOCC3)CC2)ccc1Nc1ncc2ccc(-c3ccccc3OC)n2n1` (stereo not drawn) [Example 1246, trans-1-[3-methoxy-4-[[7-(2-methoxyphenyl)pyrrolo[2,1-f][1,2,4]triazin-2-yl]amino]phenyl]-4-morpholino-cyclohexanecarbonitrile], the values for the IC50 at ALK (setting [1]) and on JAK2 (setting [2]) were under 100 nM and 100 to 1000 nM, respectively.

As for `CC(C)(C)NS(=O)(=O)c1cccc(-c2ccc3cnc(Nc4ccc5nc[nH]c5c4)nn23)c1` [Example 1299, 3-[2-(3H-Benzimidazol-5-ylamino)-pyrrolo[2,1-f][1,2,4]triazin-7-yl]-N-tert-butyl-benzenesulfonamide], the IC50 at ALK (setting [1]) was 100 to 1000 nM; on JAK2 (setting [2]) it was under 100 nM.

For the compound `COc1cccnc1-c1ccc2cnc(Nc3ccc(C4CCN(CC(N)=O)CC4)cc3)nn12` [Example 1531, 2-(4-{4-[7-(3-Methoxy-pyridin-2-yl)-pyrrolo[2,1-f][1,2,4]triazin-2-ylamino]-phenyl}-piperidin-1-yl)-acetamide], the IC50 at ALK (ALK Kinase Inhibition) is 1000 to 10000 nM; at JAK2 (JAK2 Kinase Inhibition), under 100 nM.

On to `COc1ccc(OC)c(-c2ccc3cnc(Nc4ccc(N5CCOCC5)cc4)nn23)c1` [Example 424, [7-(2,5-Dimethoxy-phenyl)-pyrrolo[2,1-f][1,2,4]triazin-2-yl]-(4-morpholin-4-yl-phenyl)-amine], for which the IC50 is 100 to 1000 nM at ALK (ALK Kinase Inhibition) and under 100 nM on JAK2 (JAK2 Kinase Inhibition).

As to `CN1CCC(c2ccc(Nc3ncc4ccc(-c5cccc(N(C)C)c5)n4n3)cc2)CC1` [Example 662, [7-(3-Dimethylamino-phenyl)-pyrrolo[2,1-f][1,2,4]triazin-2-yl]-[4-(1-methyl-piperidin-4-yl)-phenyl]-amine], the IC50 on ALK (setting [1]) and at JAK2 (setting [2]) was under 100 nM each time.

Consider `CCOc1ccccc1-c1ccc2cnc(Nc3ccc(N4CCN(C)CC4)cc3)nn12` [Example 109, [7-(2-Ethoxy-phenyl)-pyrrolo[2,1-f][1,2,4]triazin-2-yl]-[4-(4-methyl-piperazin-1-yl)-phenyl]-amine], for which the IC50 on ALK (ALK Kinase Inhibition) and on JAK2 (JAK2 Kinase Inhibition) was under 100 nM in each case.

With `COc1ccccc1-c1ccc2cnc(Nc3ccc(N4CCN(C)CC4)cc3Cl)nn12` [Example 508, [2-Chloro-4-(4-methyl-piperazin-1-yl)-phenyl]-[7-(2-methoxy-phenyl)-pyrrolo[2,1-f][1,2,4]triazin-2-yl]-amine], the IC50 on ALK (setting [1]) and at JAK2 (setting [2]) was under 100 nM each time.

With `CS(=O)(=O)Nc1ccc(-c2ccc3cnc(Nc4ccc(N5CCOCC5)cc4)nn23)cc1` [Example 200, N-{4-[2-(4-Morpholin-4-yl-phenylamino)-pyrrolo[2,1-f][1,2,4]triazin-7-yl]-phenyl}-methanesulfonamide], the IC50 is 100 to 1000 nM on ALK (ALK Kinase Inhibition) and under 100 nM at JAK2 (JAK2 Kinase Inhibition).

`CC(C)(O)CN1CCN(c2ccc(Nc3ncc4ccc(-c5cccc(Cl)c5)n4n3)cc2)CC1` [Example 223, 1-(4-{4-[7-(3-Chloro-phenyl)-pyrrolo[2,1-f][1,2,4]triazin-2-ylamino]-phenyl}-piperazin-1-yl)-2-methyl-propan-2-ol]: the IC50 on ALK (ALK Kinase Inhibition) and on JAK2 (JAK2 Kinase Inhibition) was under 100 nM throughout.

As to `CN(C)C1CCC(c2ccc(Nc3ncc4ccc(-c5cccc(S(=O)(=O)NC(C)(C)C)c5)n4n3)cc2)CC1` (centres unmarked) [Example 567, N-tert-Butyl-3-{2-[4-(4-dimethylamino-cyclohexyl)-phenylamino]-pyrrolo[2,1-f][1,2,4]triazin-7-yl}-benzenesulfonamide], the IC50 at ALK (setting [1]) is 100 to 1000 nM; at JAK2 (setting [2]), under 100 nM.

In the case of `COc1cccc(Nc2ncc3ccc(-c4cc(Cl)ccc4OC)n3n2)c1` [Example 144, [7-(5-Chloro-2-methoxy-phenyl)-pyrrolo[2,1-f][1,2,4]triazin-2-yl]-(3-methoxy-phenyl)-amine], the figures for the IC50 at ALK (ALK Kinase Inhibition) and at JAK2 (JAK2 Kinase Inhibition) were 1000 to 10000 nM and under 100 nM, respectively.

On to `COc1cc(C2CCN(CCO)CC2)ccc1Nc1ncc2ccc(-c3cccc(S(=O)(=O)NC4CC4)c3)n2n1` [Example 698], for which the IC50 at ALK (setting [1]) was under 100 nM; at JAK2 (setting [2]), 100 to 1000 nM.
